According to patent US20040176349A1, “Antibacterial composition” (priority 2001, published 2004):
Where two headings read alike, the source gives them in different places.

Experiments:
E. faecalis ATCC 10541 = assay: Checkerboard microdilution MIC with PFOB, Table 2; type: cell-based; details: E. faecalis ATCC 10541; for Synergy FIC: FIC index of PFOB + labelled partner, <0.5 = synergy; for MIC of partner antibiotic in the presence of PFOB at 0.5 mg/L: PFOB 0.5 mg/L; for MIC of partner antibiotic in the presence of PFOB at 1 mg/L: PFOB 1 mg/L; for MIC of partner antibiotic in the presence of PFOB at 2 mg/L: PFOB 2 mg/L; for MIC of partner antibiotic in the presence of PFOB at 16 mg/L: PFOB 16 mg/L; for MIC of partner antibiotic in the presence of PFOB at 32 mg/L: PFOB 32 mg/L; for MIC: Enterococcus faecalis, ATCC10541; for MIC of partner antibiotic in the presence of PFOB at 4 mg/L: PFOB 4 mg/L; for MIC of partner antibiotic in the presence of PFOB at 8 mg/L: PFOB 8 mg/L
Description: The aim of the study was to detect any synergy between PFOB and the other antibiotics. For the purposes of the study, synergy was defined in accordance with the FIC (fractional inhibitory concentration) index, as disclosed by Lorian (1991, In “Antibiotics in Laboratory Medicine” 3rd edition, Eds. Williams & Wilkins; esp. p 434-443).

enterococci = assay: Checkerboard study, synergy summary of Example 2; type: cell-based, Enterococcus; details: in words
Description: (§1) The aim of the study was to detect any synergy between PFOB and the other antibiotics. For the purposes of the study, synergy was defined in accordance with the FIC (fractional inhibitory concentration) index, as disclosed by Lorian (1991, In “Antibiotics in Laboratory Medicine” 3rd edition, Eds. Williams & Wilkins; esp. p 434-443). In essence, if the combination of test compounds gives at least a 4-fold reduction in the FIC value for each compound, then a synergy may be considered to exist (i.e. FIC of the combination <0.5=synergy; FIC 0.5-2.0=“indifference”; and FIC >2=antagonism).

E.faecalis 78097 (van B) = assay: Checkerboard microdilution MIC with PFOB, Table 2; type: cell-based; details: E.faecalis 78097 (van B); for MIC of partner antibiotic in the presence of PFOB at 0.5 mg/L: PFOB 0.5 mg/L; for MIC of partner antibiotic in the presence of PFOB at 1 mg/L: PFOB 1 mg/L; for MIC of partner antibiotic in the presence of PFOB at 2 mg/L: PFOB 2 mg/L; for MIC of partner antibiotic in the presence of PFOB at 4 mg/L: PFOB 4 mg/L; for MIC of partner antibiotic in the presence of PFOB at 8 mg/L: PFOB 8 mg/L; for MIC of partner antibiotic in the presence of PFOB at 16 mg/L: PFOB 16 mg/L; for MIC of partner antibiotic in the presence of PFOB at 32 mg/L: PFOB 32 mg/L; for MIC: Enterococcus faecalis, partner antibiotic alone, read-out: MIC (alone) of Partner
Description: as §1
(§2) In Table 2, results in the checkerboard indicating synergy are hatched, and specific optimum synergistic combinations are boxed.

E. faecalis 5659 (vanA) = assay: Checkerboard microdilution MIC with PFOB, Table 2; type: cell-based; details: E. faecalis 5659 (vanA); for MIC of partner antibiotic in the presence of PFOB at 0.5 mg/L: PFOB 0.5 mg/L; for MIC of partner antibiotic in the presence of PFOB at 1 mg/L: PFOB 1 mg/L; for MIC of partner antibiotic in the presence of PFOB at 2 mg/L: PFOB 2 mg/L; for MIC of partner antibiotic in the presence of PFOB at 4 mg/L: PFOB 4 mg/L; for MIC of partner antibiotic in the presence of PFOB at 8 mg/L: PFOB 8 mg/L; for MIC of partner antibiotic in the presence of PFOB at 16 mg/L: PFOB 16 mg/L; for MIC of partner antibiotic in the presence of PFOB at 32 mg/L: PFOB 32 mg/L; for MIC: Enterococcus faecalis, partner antibiotic alone, read-out: MIC (alone) of Partner
Description: as §1, §2

E. faecalis ATCC 29212 = assay: Checkerboard microdilution MIC with PFOB, Table 2; type: cell-based; details: E. faecalis ATCC 29212; for MIC of partner antibiotic in the presence of PFOB at 0.5 mg/L: PFOB 0.5 mg/L; for MIC of partner antibiotic in the presence of PFOB at 1 mg/L: PFOB 1 mg/L; for MIC of partner antibiotic in the presence of PFOB at 2 mg/L: PFOB 2 mg/L; for MIC of partner antibiotic in the presence of PFOB at 4 mg/L: PFOB 4 mg/L; for MIC of partner antibiotic in the presence of PFOB at 8 mg/L: PFOB 8 mg/L; for MIC of partner antibiotic in the presence of PFOB at 16 mg/L: PFOB 16 mg/L; for MIC of partner antibiotic in the presence of PFOB at 32 mg/L: PFOB 32 mg/L; for MIC: Enterococcus faecalis, ATCC29212, partner antibiotic alone, read-out: MIC (alone) of Partner; for Synergy FIC: FIC index of PFOB + labelled partner, <0.5 = synergy; for MIC of PFOB & Partner: Partner concentration: optimum synergistic combination with PFOB, second figure (partner)
Description: as §1, §2

[1] = partner antibiotic alone, read-out: MIC (alone) of Partner

SMILES | MIC of partner antibiotic in the presence of PFOB at 0.5 mg/L (E. faecalis ATCC 10541) [µg/mL] | MIC of partner antibiotic in the presence of PFOB at 1 mg/L (E. faecalis ATCC 10541) [µg/mL] | MIC of partner antibiotic in the presence of PFOB at 2 mg/L (E. faecalis ATCC 10541) [µg/mL] | MIC of partner antibiotic in the presence of PFOB at 16 mg/L (E. faecalis ATCC 10541) [µg/mL] | MIC of partner antibiotic in the presence of PFOB at 32 mg/L (E. faecalis ATCC 10541) [µg/mL] | MIC (E. faecalis ATCC 10541; [1]) [µg/mL] | MIC of partner antibiotic in the presence of PFOB at 0.5 mg/L (E.faecalis 78097 (van B)) [µg/mL] | MIC of partner antibiotic in the presence of PFOB at 1 mg/L (E.faecalis 78097 (van B)) [µg/mL] | MIC of partner antibiotic in the presence of PFOB at 2 mg/L (E.faecalis 78097 (van B)) [µg/mL] | MIC of partner antibiotic in the presence of PFOB at 4 mg/L (E.faecalis 78097 (van B)) [µg/mL] | MIC of partner antibiotic in the presence of PFOB at 8 mg/L (E.faecalis 78097 (van B)) [µg/mL] | MIC of partner antibiotic in the presence of PFOB at 16 mg/L (E.faecalis 78097 (van B)) [µg/mL] | MIC of partner antibiotic in the presence of PFOB at 32 mg/L (E.faecalis 78097 (van B)) [µg/mL] | MIC (E.faecalis 78097 (van B)) [µg/mL] | MIC of partner antibiotic in the presence of PFOB at 0.5 mg/L (E. faecalis 5659 (vanA)) [µg/mL] | MIC of partner antibiotic in the presence of PFOB at 1 mg/L (E. faecalis 5659 (vanA)) [µg/mL] | MIC of partner antibiotic in the presence of PFOB at 2 mg/L (E. faecalis 5659 (vanA)) [µg/mL] | MIC of partner antibiotic in the presence of PFOB at 4 mg/L (E. faecalis 5659 (vanA)) [µg/mL] | MIC of partner antibiotic in the presence of PFOB at 8 mg/L (E. faecalis 5659 (vanA)) [µg/mL] | MIC of partner antibiotic in the presence of PFOB at 32 mg/L (E. faecalis 5659 (vanA)) [µg/mL] | also measured
CC1(C)S[C@@H]2[C@H](NC(=O)[C@H](N)c3ccccc3)C(=O)N2[C@H]1C(=O)O [Ampicillin, ampicillin] | 0.25 | 0.25 | 0.25 | 0.06 | <0.03 | 1 | 0.5 | 0.5 | 0.5 | 0.5 | 0.5 | 0.5 | 0.5 | 1 | 2 | 2 | 2 | 2 | 1 | 0.25 | Synergy FIC (E. faecalis ATCC 10541): 0.253; synergy with PFOB (enterococci): less marked, but still significant, synergy; MIC of partner antibiotic in the presence of PFOB at 16 mg/L (E. faecalis 5659 (vanA)): 1 µg/mL; MIC (E. faecalis 5659 (vanA)): 1 µg/mL; MIC of partner antibiotic in the presence of PFOB at 0.5 mg/L (E. faecalis ATCC 29212): 1 µg/mL; MIC of partner antibiotic in the presence of PFOB at 1 mg/L (E. faecalis ATCC 29212): 1 µg/mL; MIC of partner antibiotic in the presence of PFOB at 2 mg/L (E. faecalis ATCC 29212): 1 µg/mL; MIC of partner antibiotic in the presence of PFOB at 4 mg/L (E. faecalis ATCC 29212): 1 µg/mL; MIC of partner antibiotic in the presence of PFOB at 8 mg/L (E. faecalis ATCC 29212): 1 µg/mL; MIC of partner antibiotic in the presence of PFOB at 16 mg/L (E. faecalis ATCC 29212): 1 µg/mL; MIC of partner antibiotic in the presence of PFOB at 32 mg/L (E. faecalis ATCC 29212): <0.03 µg/mL; MIC (E. faecalis ATCC 29212): 0.5 µg/mL
CO/N=C(\C(=O)N[C@@H]1C(=O)N2C(C(=O)O)=C(COC(N)=O)CS[C@H]12)c1ccco1 [Cefuroxime, cefuroxime] | >64 | >64 | >64 | <0.06 | <0.06 | > 64 | 64 | 8 | 8 | 8 | 4 | 1 | 0.5 | > 64 | >64 | >64 | >64 | >64 | >64 | 0.5 | Synergy FIC (E. faecalis ATCC 10541): 0.067; MIC of partner antibiotic in the presence of PFOB at 4 mg/L (E. faecalis ATCC 10541): 8 µg/mL; MIC of partner antibiotic in the presence of PFOB at 8 mg/L (E. faecalis ATCC 10541): 0.5 µg/mL; MIC (E. faecalis ATCC 10541; optimum synergistic combination of PFOB with the labelled partner, first figure (PFOB), read-out: MIC of PFOB & Partner: PFOB concentration): 8 µg/mL; MIC (E. faecalis ATCC 10541; optimum synergistic combination with PFOB, second figure (partner), read-out: MIC of PFOB & Partner: Partner concentration): 0.5 µg/mL; Synergy FIC (E.faecalis 78097 (van B); FIC index of PFOB + labelled partner, <0.5 = synergy): 0.07; MIC of PFOB & Partner: Partner concentration (E.faecalis 78097 (van B); optimum synergistic combination with PFOB, second figure (partner)): 8 µg/mL; MIC of partner antibiotic in the presence of PFOB at 16 mg/L (E. faecalis 5659 (vanA)): >64 µg/mL; MIC (E. faecalis 5659 (vanA)): > 64 µg/mL; Synergy FIC (E. faecalis ATCC 29212): 0.156; MIC of partner antibiotic in the presence of PFOB at 0.5 mg/L (E. faecalis ATCC 29212): >64 µg/mL; MIC of partner antibiotic in the presence of PFOB at 1 mg/L (E. faecalis ATCC 29212): >64 µg/mL; MIC of partner antibiotic in the presence of PFOB at 2 mg/L (E. faecalis ATCC 29212): 32 µg/mL; MIC of partner antibiotic in the presence of PFOB at 4 mg/L (E. faecalis ATCC 29212): 8 µg/mL; MIC of partner antibiotic in the presence of PFOB at 8 mg/L (E. faecalis ATCC 29212): 4 µg/mL; MIC of partner antibiotic in the presence of PFOB at 16 mg/L (E. faecalis ATCC 29212): 1 µg/mL; MIC of partner antibiotic in the presence of PFOB at 32 mg/L (E. faecalis ATCC 29212): <0.06 µg/mL; MIC of PFOB & Partner: Partner concentration (E. faecalis ATCC 29212): 1 µg/mL; MIC (E. faecalis ATCC 29212): 32 µg/mL
C[C@@H](O)[C@H]1C(=O)N2C(C(=O)O)=C(SCCN=CN)C[C@H]12 [Imipenem, imipenem] | 1 | 1 | 1 | 0.125 | <0.03 | 1 | 1 | 1 | 1 | 1 | 1 | 1 | 1 | 0.5 | 1 | 1 | 1 | 1 | 1 | 0.25 | MIC of partner antibiotic in the presence of PFOB at 4 mg/L (E. faecalis ATCC 10541): 1 µg/mL; MIC of partner antibiotic in the presence of PFOB at 8 mg/L (E. faecalis ATCC 10541): 0.25 µg/mL; MIC (E. faecalis 5659 (vanA)): 0.25 µg/mL; Synergy FIC (E. faecalis ATCC 29212): 0.375; MIC of partner antibiotic in the presence of PFOB at 0.5 mg/L (E. faecalis ATCC 29212): 0.5 µg/mL; MIC of partner antibiotic in the presence of PFOB at 1 mg/L (E. faecalis ATCC 29212): 0.5 µg/mL; MIC of partner antibiotic in the presence of PFOB at 2 mg/L (E. faecalis ATCC 29212): 0.5 µg/mL; MIC of partner antibiotic in the presence of PFOB at 4 mg/L (E. faecalis ATCC 29212): 0.25 µg/mL; MIC of partner antibiotic in the presence of PFOB at 8 mg/L (E. faecalis ATCC 29212): 0.125 µg/mL; MIC of partner antibiotic in the presence of PFOB at 16 mg/L (E. faecalis ATCC 29212): 0.125 µg/mL; MIC of partner antibiotic in the presence of PFOB at 32 mg/L (E. faecalis ATCC 29212): <0.03 µg/mL; MIC of PFOB & Partner: Partner concentration (E. faecalis ATCC 29212): 0.12 µg/mL; MIC (E. faecalis ATCC 29212): 0.5 µg/mL
